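Step 1: Grow cells in 96-well plates. Step 2: Expose to compound for 48 hours at 5 concentrations. Step 3: Interpolate endpoints linearly; if unreached, use highest concentration. GI50 = concentration required for 50% inhibition of growth. At the TGI there is no net growth.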
How the values were obtained:
Assay in all cases: NCI-60 cell line screen, 48 h
[1] = system: 786-0 renal
[2] = system: A498 renal
[3] = system: A549 NSCLC
[4] = system: BT-549 breast
[5] = system: COLO 205 colon
[6] = system: DU-145 prostate
[7] = system: HCC-2998 colon
[8] = system: HCT-116 colon
[9] = system: HCT-15 colon
[10] = system: HL-60(TB) leukemia
[11] = system: HOP-62 NSCLC
[12] = system: HOP-92 NSCLC
[13] = system: IGROV1 ovarian
[14] = system: K-562 leukemia
[15] = system: KM12 colon
[16] = system: LOX IMVI melanoma
[17] = system: M14 melanoma
[18] = system: MCF7 breast
[19] = system: MDA-MB-231 breast
[20] = system: MDA-MB-468 breast
[21] = system: MOLT-4 leukemia
[22] = system: NCI-H226 lung
[23] = system: NCI-H23 lung
[24] = system: NCI-H522 lung
[25] = system: NCI/ADR-RES ovarian
[26] = system: OVCAR-3 ovarian
[27] = system: OVCAR-5 ovarian
[28] = system: OVCAR-8 ovarian
[29] = system: PC-3 prostate
[30] = system: RXF 393 renal
[31] = system: SF-295 CNS
[32] = system: SF-539 CNS
[33] = system: SK-MEL-2 melanoma
[34] = system: SK-MEL-28 melanoma
[35] = system: SK-MEL-5 melanoma
[36] = system: SK-OV-3 ovarian
[37] = system: SN12C renal
[38] = system: SNB-19 CNS
[39] = system: SNB-75 CNS
[40] = system: SR leukemia
[41] = system: T-47D breast
[42] = system: TK-10 renal
[43] = system: U251 CNS
[44] = system: UACC-257 melanoma
[45] = system: UACC-62 melanoma

`Nc1nn2c(-c3cc4cc(Br)ccc4oc3=O)ccnc2c1N=Nc1ccc(Br)cc1` was tested, and the GI50 [1] was 1.76 µM, the TGI [1] was 3.35 µM and the GI50 [2] was 1.81 µM. The TGI [2] was 3.92 µM, the GI50 [3] was 2.42 µM and the TGI [3] was 6.86 µM. For the same compound, the GI50 [4] was 2.94 µM, the TGI [4] was 8.72 µM and the GI50 [5] was 3.34 µM. The TGI [5] was over 100 µM, the GI50 [6] was 3.24 µM and the TGI [6] was over 100 µM. The GI50 [7] was 3.74 µM, the TGI [7] was over 100 µM and the GI50 [8] was 1.75 µM. For the same compound, the TGI [8] was 3.44 µM, the GI50 [9] was 2.58 µM and the TGI [9] was 8.23 µM. The GI50 [10] was over 100 µM, the TGI [10] was over 100 µM and the GI50 [11] was 1.99 µM. The TGI [11] was 4.16 µM, the GI50 [12] was 2 µM and the TGI [12] was 4.61 µM. The GI50 [13] was 2.72 µM, the TGI [13] was 8.76 µM and the GI50 [14] was 3.28 µM. It also gave a TGI [14] of over 100 µM, a GI50 [15] of 3.76 µM and a TGI [15] of over 100 µM. It also gave a GI50 [16] of 2.09 µM, a TGI [16] of 4.46 µM and a GI50 [17] of 3.06 µM. It also gave a TGI [17] of over 100 µM, a GI50 [18] of 2.89 µM and a TGI [18] of 10.1 µM. For the same compound, the GI50 [19] was 1.73 µM, the TGI [19] was 3.4 µM and the GI50 [20] was 2.04 µM. It also gave a TGI [20] of 5.47 µM, a GI50 [21] of over 100 µM and a TGI [21] of over 100 µM. It also gave a GI50 [22] of 1.96 µM, a TGI [22] of 4.58 µM and a GI50 [23] of 2.06 µM. It also gave a TGI [23] of 4.4 µM, a GI50 [24] of 2.2 µM and a TGI [24] of 6.55 µM. The GI50 [25] was 2.22 µM, the TGI [25] was 5.01 µM and the GI50 [26] was 2.33 µM. For the same compound, the TGI [26] was 6.37 µM, the GI50 [27] was 2.11 µM and the TGI [27] was 5.21 µM. For the same compound, the GI50 [28] was 2.81 µM, the TGI [28] was 9.79 µM and the GI50 [29] was 1.99 µM. For the same compound, the TGI [29] was 5.09 µM, the GI50 [30] was 2.25 µM and the TGI [30] was 5.37 µM. The GI50 [31] was 1.86 µM, the TGI [31] was 4.01 µM and the GI50 [32] was 1.73 µM. It also gave a TGI [32] of 3.13 µM, a GI50 [33] of 3.68 µM and a TGI [33] of 17.1 µM. It also gave a GI50 [34] of 2.18 µM, a TGI [34] of 4.93 µM and a GI50 [35] of 3.25 µM. The TGI [35] was over 100 µM, the GI50 [36] was 2.62 µM and the TGI [36] was 6.61 µM. For the same compound, the GI50 [37] was 1.94 µM, the TGI [37] was 3.87 µM and the GI50 [38] was 2.84 µM. For the same compound, the TGI [38] was 10.9 µM, the GI50 [39] was 1.81 µM and the TGI [39] was 4.62 µM. The GI50 [40] was 5.12 µM, the TGI [40] was over 100 µM and the GI50 [41] was 2.29 µM. It also gave a TGI [41] of 6.8 µM, a GI50 [42] of 2.34 µM and a TGI [42] of 5.08 µM. For the same compound, the GI50 [43] was 2.14 µM, the TGI [43] was 5.25 µM and the GI50 [44] was 3.06 µM. For the same compound, the TGI [44] was over 100 µM, the GI50 [45] was 3.24 µM and the TGI [45] was over 100 µM.

`CN1C/C=C/CCOc2cccc(c2)-c2ccnc(n2)Nc2cccc(c2)C1` gave a GI50 [20] of 0.0366 µM and a TGI [20] of 0.107 µM.

In the case of `Cn1c(=O)c(Oc2ccc(F)cc2F)cc2cnc(NC3CCS(=O)(=O)CC3)nc21`, the GI50 [20] is reported as over 25 µM and the TGI [20] is reported as over 25 µM.

For `COc1cc2c(cc1Nc1nc(Nc3cccc(F)c3C(N)=O)c3cc[nH]c3n1)N(C(=O)CN1CCN(C(C)C)CC1)CC2`, the GI50 [20] was 2.22 µM and the TGI [20] was 5.73 µM.

Compound `CCOC(=O)C(=O)/C(=C/N1C(=O)CC(=O)NC1=S)C(=O)OCC` has a GI50 [20] of over 100 µM and a TGI [20] of over 100 µM.

Work on `N#C[Se]CCCNS(=O)(=O)C1CC2C=CC1C2` (stereo not given) yielded a GI50 [20] of 1.29 µM and a TGI [20] of 4.16 µM.

In the case of `Cc1ccc(NC(=O)c2sc3nc4c(cc3c2N)C(=O)CCC4)cc1C`, the GI50 [20] is reported as 0.314 µM and the TGI [20] is reported as over 100 µM.

For `O=C(Nc1n[nH]c2nnc(-c3cccnc3)cc12)C1CC1`, the GI50 [20] was 0.805 µM and the TGI [20] was 5.02 µM.

For `CCOc1cccc(-c2nc(N)nc(Nc3ccccc3SSc3ccccc3Nc3nc(N)nc(-c4cccc(OCC)c4)n3)n2)c1`, the GI50 [20] was 24.2 µM and the TGI [20] was over 100 µM.

With `O=C1OCC2=C1C(c1ccc(Cl)c(Cl)c1)c1cc3c(cc1N2CCO)CCC3` (stereo not given) the GI50 [20] was 0.109 µM and the TGI [20] was 0.35 µM.

Work on `COc1ccc(/C=C/C(=O)c2ccc(OC)c(OC)c2)cc1O` yielded a GI50 [20] of 3.59 µM and a TGI [20] of 19.6 µM.
